Assay results from the RepoRT retention time repository (doi:10.1016/j.jchromb.2020.122105).

Experiments:
Conditions in all cases: stereoisomer not certain
[1] = RP, Waters CORTECS T3, 100 × 2.1 mm, 2.7 µm, 0.2 mL/min, estimated dead time 1.1 min; A: water + 0.1% formic acid, pH 3; B: methanol + 0.1% formic acid, pH 3; gradient (min/%B) 0/0 1/0 6/5 30/100 35/100 35.1/0 40/0
[2] = RP, Waters CORTECS T3, 100 × 2.1 mm, 2.7 µm, 0.3 mL/min, estimated dead time 0.73 min; A: water + 0.1% formic acid, pH 3; B: methanol + 0.1% formic acid, pH 3; gradient (min/%B) 0/5 5/5 25/95 25.1/100 35/100 35.1/5 45/5
[3] = RP, Waters ACQUITY UPLC BEH C18, 100 × 2.1 mm, 1.7 µm, 0.1 mL/min, estimated dead time 2.2 min; A: water + 0.1% formic acid, pH 3; B: methanol + 0.1% formic acid, pH 3; gradient (min/%B) 0/5 5/5 25/95 25.1/100 35/100 35.1/5 45/5
[4] = RP, Waters CORTECS T3, 100 × 2.1 mm, 2.7 µm, 0.3 mL/min, estimated dead time 0.73 min; A: water + 0.1% formic acid, pH 3; B: methanol + 0.1% formic acid, pH 3; gradient (min/%B) 0/5 5/5 25/100 30/100 30.1/5 35/5
[5] = RP, Waters ACQUITY UPLC BEH C18, 100 × 2.1 mm, 1.7 µm, 0.1 mL/min, estimated dead time 2.2 min; A: water + 0.045% formic acid + 0.11% ammonium hydroxide, pH 7; B: methanol; gradient (min/%B) 0/5 5/5 25/95 25.1/100 35/100 35.1/5 45/5
[6] = RP, Waters ACQUITY UPLC BEH C18, 100 × 2.1 mm, 1.7 µm, 0.2 mL/min, estimated dead time 1.1 min; A: water + 0.025% formic acid + 20 mM ammonium acetate + 0.055% ammonium hydroxide, pH 7; B: methanol; gradient (min/%B) 0/5 5/5 25/100 30/100 30.1/5 35/5
[7] = RP, Waters CORTECS T3, 100 × 2.1 mm, 2.7 µm, 0.2 mL/min, estimated dead time 1.1 min; A: water + 0.045% formic acid + 0.11% ammonium hydroxide, pH 7; B: methanol; gradient (min/%B) 0/5 5/5 25/95 25.1/100 35/100 35.1/5 45/5
[8] = RP, Waters CORTECS T3, 100 × 2.1 mm, 2.7 µm, 0.25 mL/min, estimated dead time 0.88 min; A: water + 0.1% formic acid, pH 3; B: methanol + 0.1% formic acid, pH 3; gradient (min/%B) 0/0 1/0 6/5 30/100 35/100 35.1/0 40/0
[9] = RP, Waters CORTECS T3, 100 × 2.1 mm, 2.7 µm, 0.3 mL/min, estimated dead time 0.73 min; A: water + 0.1% formic acid, pH 3; B: methanol + 0.1% formic acid, pH 3; gradient (min/%B) 0/0 1/0 6/5 30/100 35/100 35.1/0 40/0
[10] = RP, Waters CORTECS T3, 100 × 2.1 mm, 2.7 µm, 0.15 mL/min, estimated dead time 1.5 min; A: water + 0.1% formic acid, pH 3; B: methanol + 0.1% formic acid, pH 3; gradient (min/%B) 0/0 1/0 6/5 30/100 35/100 35.1/0 40/0
[11] = RP, Waters ACQUITY UPLC BEH C18, 100 × 2.1 mm, 1.7 µm, 0.1 mL/min, estimated dead time 2.2 min; A: water + 0.1% formic acid, pH 3; B: methanol + 0.1% formic acid, pH 3; gradient (min/%B) 0/5 5/5 25/100 30/100 30.1/5 35/5
[12] = RP, Waters CORTECS T3, 100 × 2.1 mm, 2.7 µm, 0.3 mL/min, estimated dead time 0.73 min; A: water + 0.1% formic acid, pH 3; B: methanol + 0.1% formic acid, pH 3; gradient (min/%B) 0/0 5/0 25/100 30/100 30.1/0 35/0
[13] = RP, Waters ACQUITY UPLC BEH C18, 100 × 2.1 mm, 1.7 µm, 0.1 mL/min, estimated dead time 2.2 min; A: water + 0.1% formic acid, pH 3; B: methanol + 0.1% formic acid, pH 3; gradient (min/%B) 0/5 5/5 25/95 25.1/100 35/100 35.1/5 45/5; remark: listed apart in the source
[14] = RP, Thermo Scientific Hypercarb, 150 × 2.1 mm, 5 µm, 0.1 mL/min, estimated dead time 3.3 min; A: water + 0.1% formic acid, pH 3; B: methanol + 0.1% formic acid, pH 3; gradient (min/%B) 0/5 5/5 20/100 35/100 35.1/5 45/5
[15] = RP, Waters CORTECS T3, 100 × 2.1 mm, 2.7 µm, 0.1 mL/min, estimated dead time 2.2 min; A: water + 0.1% formic acid, pH 3; B: methanol + 0.1% formic acid, pH 3; gradient (min/%B) 0/5 5/5 25/95 25.1/100 35/100 35.1/5 45/5
[16] = RP, Waters CORTECS T3, 100 × 2.1 mm, 2.7 µm, 0.2 mL/min, estimated dead time 1.1 min; A: water + 0.1% formic acid, pH 3; B: methanol + 0.1% formic acid, pH 3; gradient (min/%B) 0/0 1/0 6/5 30/100 35/100 35.1/0 40/0; remark: listed apart in the source
[17] = RP, Waters CORTECS T3, 100 × 2.1 mm, 2.7 µm, 0.25 mL/min, estimated dead time 0.88 min; A: water + 0.1% formic acid, pH 3; B: methanol + 0.1% formic acid, pH 3; gradient (min/%B) 0/5 5/5 25/95 25.1/100 35/100 35.1/5 45/5
[18] = RP, Waters ACQUITY UPLC BEH C18, 100 × 2.1 mm, 1.7 µm, 0.2 mL/min, estimated dead time 1.1 min; A: water + 0.1% formic acid, pH 3; B: methanol + 0.1% formic acid, pH 3; gradient (min/%B) 0/5 5/5 25/100 30/100 30.1/5 35/5
[19] = RP, Waters CORTECS T3, 100 × 2.1 mm, 2.7 µm, 0.3 mL/min, estimated dead time 0.73 min; A: water + 0.1% formic acid, pH 3; B: methanol + 0.1% formic acid, pH 3; gradient (min/%B) 0/0 5/0 25/100 30/100 30.1/0 35/0; remark: listed apart in the source
[20] = RP, Waters CORTECS T3, 100 × 2.1 mm, 2.7 µm, 0.3 mL/min, estimated dead time 0.73 min; A: water + 0.1% formic acid, pH 3; B: methanol + 0.1% formic acid, pH 3; gradient (min/%B) 0/0 1/0 6/5 30/100 35/100 35.1/0 40/0; remark: listed apart in the source
[21] = RP, Waters CORTECS T3, 100 × 2.1 mm, 2.7 µm, 0.2 mL/min, estimated dead time 1.1 min; A: water + 0.1% formic acid, pH 3; B: methanol + 0.1% formic acid, pH 3; gradient (min/%B) 0/5 5/5 25/95 25.1/100 35/100 35.1/5 45/5
[22] = RP, Waters CORTECS T3, 100 × 2.1 mm, 2.7 µm, 0.1 mL/min, estimated dead time 2.2 min; A: water + 0.1% formic acid, pH 3; B: methanol + 0.1% formic acid, pH 3; gradient (min/%B) 0/0 1/0 6/5 30/100 35/100 35.1/0 40/0
[23] = RP, Waters ACQUITY UPLC BEH C18, 100 × 2.1 mm, 1.7 µm, 0.1 mL/min, estimated dead time 2.2 min; A: water + 0.1% formic acid, pH 3; B: methanol + 0.1% formic acid, pH 3; gradient (min/%B) 0/5 5/5 25/95 25.1/100 35/100 35.1/5 45/5; remark: listed apart in the source
[24] = RP, Waters ACQUITY UPLC BEH C18, 100 × 2.1 mm, 1.7 µm, 0.2 mL/min, estimated dead time 1.1 min; A: water + 0.025% formic acid + 20 mM ammonium acetate + 0.055% ammonium hydroxide, pH 7; B: methanol; gradient (min/%B) 0/5 5/5 25/100 30/100 30.1/5 35/5; remark: listed apart in the source
[25] = HILIC, Merck SeQuant ZIC-HILIC, 150 × 2.1 mm, 5 µm, 0.75 mL/min, estimated dead time 0.44 min; A: water + 0.1% acetic acid + 10 mM ammonium acetate, pH 4; B: 5% water + 95% acetonitrile + 0.1% acetic acid + 10 mM ammonium acetate, pH 4; gradient (min/%B) 0/95 5/95 20/57 25/57 30/95 40/95

Compound | LC retention time [1] | LC retention time [2] | LC retention time [3] | LC retention time [4] | LC retention time [5] | LC retention time [6] | LC retention time [7] | LC retention time [8] | LC retention time [9] | LC retention time [10] | LC retention time [11] | LC retention time [12] | LC retention time [13] | LC retention time [14] | LC retention time [15] | further results
CCCCCCCCCC(=O)OCC(COP(=O)([O-])OCC[N+](C)(C)C)OC(=O)CCCCCCCCC (centres undefined) [1,2-DIDECANOYL-SN-GLYCERO-3-PHOSPHOCHOLINE] | 29.8 min | 25.3 min | 29.7 min | 24.3 min | 29.7 min | 26 min | 26 min | 29.2 min | 28.7 min | 30.9 min | – | – | – | – | – | –
CN1CCC[C@H]1c1cccnc1 [(S)-NICOTINE] | 1.34 min | – | – | – | 16.1 min | 11.2 min | 11.7 min | 1.09 min | – | 1.78 min | 2.74 min | 0.89 min | 2.66 min | 4.86 min | – | –
O=c1cc[nH]c(=O)[nH]1 [URACIL] | 1.36 min | – | 2.69 min | 0.95 min | – | – | – | 1.11 min | – | 1.85 min | 2.76 min | 0.91 min | – | 21.2 min | 2.68 min | –
Nc1nc2c(ncn2C2OC(COP(=O)(O)O)C(O)C2O)c(=O)[nH]1 (centres undefined) [GUANOSINE 5'-MONOPHOSPHATE] | – | 0.9 min | 2.84 min | – | – | – | – | 1.09 min | – | – | – | – | – | – | – | LC retention time [16]: 1.35 min; LC retention time [17]: 1.08 min; LC retention time [18]: 1.79 min; LC retention time [19]: 0.89 min; LC retention time [20]: 0.92 min; LC retention time [21]: 2.67 min
NC(Cc1cc(I)c(Oc2cc(I)c(O)c(I)c2)c(I)c1)C(=O)O (centres undefined) [THYROXINE] | 22.8 min | 19.1 min | – | 18.5 min | – | – | – | 22.1 min | 21.6 min | 23.9 min | 22.7 min | 18.9 min | 23.5 min | – | – | LC retention time [22]: 20.3 min
C[N+](C)(C)CCOP(=O)(O)O [PHOSPHOCHOLINE] | – | – | 2.66 min | – | – | – | – | – | – | – | – | – | – | 4.81 min | – | –
O=c1cccc[nH]1 [2-HYDROXYPYRIDINE] | 4.15 min | 1.89 min | 2.75 min | 1.91 min | 5.83 min | 3.24 min | 2.92 min | 3.26 min | 2.69 min | 5.81 min | 5.99 min | 2.85 min | – | – | 5.41 min | LC retention time [22]: 2.74 min
Nc1ncnc2c1ncn2C1CC(O)C(COP(=O)(O)O)O1 (centres undefined) [DAMP] | 1.34 min | 0.9 min | 2.72 min | – | – | – | – | 1.09 min | 0.92 min | 1.78 min | 2.74 min | – | – | – | – | LC retention time [16]: 1.35 min; LC retention time [17]: 1.08 min; LC retention time [18]: 1.38 min; LC retention time [23]: 2.7 min; LC retention time [24]: 1.36 min; LC retention time [19]: 0.89 min; LC retention time [20]: 0.92 min; LC retention time [25]: 12.9 min; LC retention time [21]: 2.67 min
NC(=O)c1cccnc1 [NICOTINAMIDE] | 2.36 min | 1.17 min | 2.69 min | 1.2 min | 6.91 min | 3.89 min | 3.68 min | 1.9 min | 1.57 min | 3.31 min | 3.66 min | 1.63 min | – | 24.4 min | 3.38 min | –
NCCc1c[nH]c2ccc(O)cc12 [SEROTONIN] | – | – | – | – | 13.9 min | – | 10.7 min | – | – | – | 2.74 min | – | 2.66 min | 14.4 min | – | –
